Columns and labels:
SCDase = assay: Substrate specificity (hydrolysis) of purified SCDase from Pseudomonas sp. TK-4; format: biochemical; conditions: 10 nmol sphingolipid, 2 milliunits enzyme, 37° C. 16 h, 20 mM sodium acetate buffer pH 5.0, 0.8% Triton X-100, TLC
Description: (§1) The enzyme activity of the SCDase is assayed in the following manner. To 10 μl of a substrate solution [50 mM acetate buffer solution (pH 6.0) containing 2 mM of asialo GM1 and 0.6% (w/v) of Triton X-100] is added 10 μl of an enzyme solution. After reacting at 37° C. for 30 minutes, the enzyme reaction is ceased by heating the mixture to 100° C. for 3 minutes. Then the reaction mixture is concentrated to dryness with a centrifugal concentrator. Then the obtained concentrate is dissolved in 10 μl of 50% methanol and placed on a TLC plate (silica gel 60; manufactured by Merck & Co., Inc.). After developing with chloroform/methanol/0.02% aqueous solution of CaCl2 (5/4/1 by volume), the sphingolipid is subjected to color development by the orcinol-sulfuric acid method. […] This spot is determined by using a TLC chromatoscanner (Shimadzu CS-9000, manufactured by Shimadzu Corporation) at a wavelength of 540 nm.
Sphingolipids (10 nmol each) were incubated at 37° C. for 16 h with 2 milliunits of the enzyme in 20 μl of 20 mM sodium acetate buffer, pH 5.0, containing 0.8% Triton X-100. The extent of hydrolysis was examined by TLC and calculated.

crude SCDase = assay: Substrate specificity of crude SCDase (culture supernatant) from Shewanella alga NS-589; format: biochemical; conditions: for Substrate specificity: acting on the substrate, forming the corresponding lysosphingolipid and fatty acid: SCDase produced by Shewanella alga NS-589; for Digestion ratio (%): crude SCDase supernatant, 1.2 mM sphingolipid, acetate buffer pH 6.0, Triton X-100, 37° C. 16 hours, TLC
Description: Acting on acidic glycolipids (GM1, GM2, GD1a, GD1b, sialosyl paragloboside, etc.), neutral glycolipids (lactosyl ceramide, Gb4, Gb5, etc.), sulfated glycolipids (sulfatide, etc.) and sphingomyelin which is a sphingophospholipid, thus forming the corresponding lysosphingolipid and fatty acid in each case.
The substrate specificity was examined as follows. Shewanella alga NS-589 was inoculated into a synthetic medium (dipotassium hydrogenphosphate 0.05%, ammonium chloride 0.05%, sphingomyelin 0.1%, sodium taurodeoxycholate 0.1%, sodium chloride 2%, 2,6-O-dimethyl-β-cyclodextrin 0.1%; pH 7.4). Two days after shaking cultivation at 30° C., the strain was removed to obtain a supernatant by centrifuge. A 50 mM acetate buffer ([…]; pH 6.0) containing 3 μl of the supernatant and 1.6% Triton X-100 was allowed to react with 5 μl of 1.2 mM of each of sphingolipids shown in Table 2 at 37° C. for 16 hours, and then the resulting mixture was analyzed with a thin layer chromatography.
The digestion ratios of various substrates by a crude SCDase obtained from Shewanella alga NS-589.

Pseudomonas sp. TK-4 = assay: Conversion of glycosphingolipids into lyso-forms by culture of Pseudomonas sp. TK-4; format: cell-based; conditions: PY medium with 0.1% 2,6-O-dimethyl-β-cyclodextrin, glycosphingolipid 0.5 mg/ml (Gb4 0.1 mg/ml), 25° C. shaking 3 days, TLC of supernatant
Description: A 60 ml portion of PY medium (polypeptone 0.5%, yeast extract 0.1%, sodium chloride 0.2%; pH 7.2) containing 30 mg of ganglioside GM1 (manufactured by Iatron) and 0.1% of 2,6-O-dimethyl-β-cyclodextrin was sterilized and inoculated with the strain which had been incubated overnight in a slant medium containing 0.1% of crude bovine brain ganglioside prepared in accordance with the method described in Methods in Enzymology, 14:660-664 (1969). Then, the strain was incubated therein under shaking at 25° C. for 3 days.
Then the cells were eliminated by centrifuging the culture medium and thus the culture supernatant was obtained.
PY medium (polypeptone 0.5%, yeast extract 0.1%, sodium chloride 0.2%; pH 7.2) containing 0.1% of 2,6-O-dimethyl-β-cyclodextrin was sterilized in an autoclave and filter-sterilized aqueous solutions of various glycosphingolipids [i.e., GM1, GM2 (manufactured by Matreya), GM3 (manufactured by Iatron), GD1a (manufactured by Iatron), GD1b (manufactured by Iatron), GD3 (manufactured by Iatron), GT1b (manufactured by Biocarb), sulfatide (manufactured by Matreya): each 0.5 mg/ml, Gb4 (manufactured by Iatron): 0.1 mg/ml] were added thereto. Then each medium was inoculated with Pseudomonas sp. TK-4, which had been incubated overnight in a slant medium containing 0.1% of crude bovine brain ganglioside, followed by incubation at 25° C. under shaking for 3 days.
Then the cells were eliminated by centrifuging the culture medium to obtain the culture supernatant which was then analyzed by thin layer chromatography.

[1] = tested on: SCDase derived from the genus Pseudomonas; assay: Fatty acid exchange reaction on various acceptors by SCDase; format: biochemical; conditions: 1 nmol [1-14C] stearic acid, 1 nmol sphingolipid, 30 μU SCDase, acetate buffer pH 6.0, 0.8% Triton X-100, overnight 37° C., galactosyl ceramide = 100
Description: A 10 μl portion of 50 mM acetate buffer (pH 6.0) containing 1 nmol [1−^14C] stearic acid, 1 nmol sphingolipid, 0.8% Triton X-100 and 30 μU SCDase derived from the genus Pseudomonas was allowed to react overnight at 37° C.
The thus obtained reaction solution was developed on thin layer chromatography and exposed to an imaging plate to carry out determination of the reaction product by BAS 1000 Imaging Analyzer (manufactured by Fuji Photo Film).

[2] = tested on: SCDase derived from the genus Pseudomonas; assay: Reverse reaction on various acceptors by SCDase-1 ([1-14C] stearic acid); format: biochemical; conditions: 1 nmol [1-14C] stearic acid, 1 nmol lysosphingolipid, 30 μU SCDase, acetate buffer pH 6.0, 0.8% Triton X-100, overnight 37° C., galactosylsphingosine = 100
Description: A 10 μl portion of 50 mM acetate buffer (pH 6.0) containing 1 nmol [1-^14C] stearic acid, 1 nmol lysosphingolipid, 0.8% Triton X-100 and 30 μU SCDase derived from the genus Pseudomonas was subjected to overnight reaction at 37° C. The thus obtained reaction solution was developed on thin layer chromatography and exposed to an imaging plate to carry out for determining the reaction product by BAS 1000 Imaging Analyzer (manufactured by Fuji Photo Film).

[3] = tested on: SCDase derived from the genus Pseudomonas; assay: Reverse reaction on various acceptors by SCDase-2 (N-trifluoroacetylated aminododecanoic acid); format: biochemical; conditions: 66.6 nmol N-trifluoroacetylated aminododecanoic acid, 33.3 nmol lysosphingolipid, 148 μU SCDase, glycine-NaOH pH 11, 0.3% Triton X-100, 48 hours 37° C.
Description: A 41.6 μl portion of 25 mM glycine-sodium hydroxide buffer (pH 11) containing 66.6 nmol N-trifluoroacetylated aminododecanoic acid, 33.3 nmol lysosphingolipid, 0.3% Triton X-100 and 148 μU SCDase derived from the genus Pseudomonas was subjected to 48 hours of reaction at 37° C.
The thus obtained reaction solution was developed on thin layer chromatography, a glycosphingolipid was colored with orcinol-sulfuric acid, and other sphingolipids with Coomassie Brilliant Blue, and then determination of the reaction product was carried out by Imaging Densitometer (manufactured by Bio-Rad).

[4] = Enzymological properties of SCDase of Pseudomonas sp. TK-4 (optimum pH, temperature, stability); format: biochemical
Description: as §1
One unit (1 U) of activity is defined as the amount of the enzyme liberating 1 μmol of lysoasialo GM1 per minute from asialo GM1 at 37° C. […]
The enzyme of the present invention is maintained at each definite pH value at 5C for 16 hours. After returning the pH value to 6.0, the enzyme activity is measured to thereby examine the pH stability of the enzyme. […]

Molecule | Digestion ratio (%) (SCDase) | Relative activity (%) [1] | Relative activity (%) [2] | further results
GD1a | 49% | 6.2% |  | Substrate specificity: acting on the substrate, forming the corresponding lysosphingolipid and fatty acid (crude SCDase): Acting on; Digestion ratio (%) (crude SCDase): 32.6%; Digestion ratio (%) (Pseudomonas sp. TK-4): 100%
GT1b |  |  |  | Digestion ratio (%) (crude SCDase): 26.2%; Digestion ratio (%) (Pseudomonas sp. TK-4): 100%
CCCCCCCCCCCCC/C=C/[C@@H](O)[C@@H](N)CO[C@@H]1O[C@H](CO)[C@H](O)[C@H](O)[C@H]1O [Galactosylsphingosine, galactosylsphingosine] |  |  | 100.0% | 
Sulfatide | 59% | 31.7% |  | Substrate specificity: acting on the substrate, forming the corresponding lysosphingolipid and fatty acid (crude SCDase): Acting on; Digestion ratio (%) (Pseudomonas sp. TK-4): 100%
CCCCCCCCCCCCC/C=C/[C@@H](O)[C@@H](N)CO [Sphingosine, sphingosine] |  |  | 11.5% | Reaction Efficiency (%) [3]: 69%
CCCCCCCCCCCCC/C=C/[C@@H](O)[C@@H](N)COP(=O)([O-])OCC[N+](C)(C)C [Lysosphingomyelin, sphingosylphosphorylcholine] |  |  | 5.7% | 
CCCCCCCCCCCCCC=CC(O)C(N)COC1OC(CO)C(OC2OC(CO)C(O)C(OC3(C(=O)O)CC(O)C(NC(C)=O)C(C(O)C(O)CO)O3)C2O)C(O)C1O (stereo not drawn) [Lysoganglioside GM3] |  |  |  | Reaction Efficiency (%) [3]: 24%
CCCCCCCCCCCCC/C=C/[C@@H](O)[C@@H](N)CO[C@@H]1O[C@H](CO)[C@@H](O[C@@H]2O[C@H](CO)[C@H](O[C@@H]3O[C@H](CO)[C@H](O)[C@H](O[C@@H]4O[C@H](CO)[C@H](O)[C@H](O)[C@H]4O)[C@H]3NC(C)=O)[C@H](O[C@]3(C(=O)O)C[C@H](O)[C@@H](NC(C)=O)[C@H]([C@H](O)[C@H](O)CO)O3)[C@H]2O)[C@H](O)[C@H]1O [Lysoganglioside GM1a] |  |  | 15.4% | Reaction Efficiency (%) [3]: 29%
Gal-GalNAc-Gal-Glc-Cer [Asialo GM1] | 67% | 164.0% |  | 
GD1b |  | 1.2% |  | Substrate specificity: acting on the substrate, forming the corresponding lysosphingolipid and fatty acid (crude SCDase): Acting on; Digestion ratio (%) (Pseudomonas sp. TK-4): 100%
lactosyl ceramide [Lac-cer] | 64% | 112.0% |  | Substrate specificity: acting on the substrate, forming the corresponding lysosphingolipid and fatty acid (crude SCDase): Acting on; Digestion ratio (%) (crude SCDase): 19.3%
Galactosyl ceramide [Gal-cer] | 42% | 100.0% |  | 
CCCCCCCCCCCCC/C=C/[C@@H](O)[C@@H](N)CO[C@@H]1O[C@H](CO)[C@@H](O[C@@H]2O[C@H](CO)[C@H](O)[C@H](O)[C@H]2O)[C@H](O)[C@H]1O [Lysolactosyl ceramide] |  |  | 37.2% | 
Ceramide |  | 77.5% |  | 
CCCCCCCCCCCCC/C=C/[C@@H](O)[C@@H](N)CO[C@@H]1O[C@H](CO)[C@H](O)[C@H](OS(=O)(=O)O)[C@H]1O [Lysosulfatide] |  |  | 59.6% | 
Glucosyl ceramide [Glc-cer] | 48% | 129.0% |  | 
SCDase (Pseudomonas sp. TK-4): sphingolipid ceramide N-deacylase produced by Pseudomonas sp. TK-4, SEQ ID NO:1 (protein, OTHER INFORMATION: Description of Unknown Or ganism: sphingolipid ceramide N-deacylase) ELGDYGAWKTLLNLTSPPKADNPVRAEQRVGPYPMLANPAGFRSGFTPTAYFAWQTVQLAPETGAVCGDGSPYKFFVNRMPNTSNTLIYMEGGGACWDYASCSGQAGIRGARNPNGIPDDYMKLANPQASLVSPFVVRLHPYSRVKTQGWNIVYIPYCTGDLYAGDKVAVYDDPSGKKPPLVWHHNGLRNGRAVLGWLKDNLERPGQMLSTGCSAGGAGSLISHSVLRQDLAPDRGFLIDDSGPVFSAAVGGDSQTYPSLPLQNLIRSAWGLDQGPLQFLQSRLPGVSLSNLGSLYPALAANFPGDRLGHTHFWQDLNYSSYSYERFYPEIANAPDKATKEALIKAKWQVDTARLRDTLANLPNFGGYFPQYRALNESHCTTIVDFANGDIQEQGLELSHFIDNVLNGQGPVLDASELSDSADRAKPNNLIYDAINKLL |  |  |  | Optimum temperature (maximum activity) ([4]; FIG. 2): about 40 °C; Heat stability: activity sustained ([4]; after treating at 60° C. for 30 minutes, FIG. 4): 90%
